The subject of data set [1] is conscious rats. Briefly: Antihypertensive activity by oral administration in conscious rats. Type of data set: in vivo, Male Wistar rats. The following applies: 10 mg/kg oral. How it is done: When one hour or more passed after the rats were aroused, they were administered the test compound orally.
The blood pressure in the femoral artery was recorder and changes in the mean blood pressure were obtained from the following equation. [formula]

For data set [2] the following is noted: prior art; cited from earlier work.

The values that follow come from patent publication US4578395A, “Certain aralkylaminoalkyl esters of 1,4 dihydropyridines as antihypertensive” (Teijin Limited, priority 1983, dated 1986).

As to `CCOC(=O)C1=C(C)NC(C)=C(C(=O)OC)C1c1cccc(Cl)c1Cl` (centres unmarked) [Felodipine, 4-(2,3-dichlorophenyl)-2,6-dimethyl-1,4-dihydropyridine-3,5-dicarboxylic acid-3-methyl ester-5-ethyl ester, reference compound], the “Changes in mean blood pressure” value is on record as -34 mmHg in data set [1] (after 30 min); -27 mmHg in data set [1] (after 60 min); -24 mmHg in data set [1] (after 90 min); -22 mmHg in data set [1] (after 2 hr); -17 mmHg in data set [1] (after 3 hr); -10 mmHg in data set [1] (after 5 hr). Moreover, in data set [1] (after 7 hr), the “Changes in mean blood pressure” value is -5 mmHg. Moreover, the “solubility in water” value in data set [2] was “very purely soluble in water”.
